Values quoted from earlier work, collected in patent US7186882B2, “Transgenic mouse over-expressing calreticulin (CRT) in vascular smooth muscle cells” (priority 2003, dated 2007).
Where a SMILES comes first, the peptide text is derived from it. Bridges are numbered along the chain shown (N, C = ends).

B1: CRT: calreticulin, 46 kDa ER protein, exogenously added to vascular cells or vessel lumen (protein)
chain: MLLPVPLLLGLLGLAAAEPVVYFKEQFLDGDGWTERWIESKHKSDFGKFVLSSGKFYGDQEKDKGLQTSQDARFYALSARFEPFSNKGQPLVVQFTVKHEQNIDCGGGYVKLFPAGLDQKDMHGDSEYNIMFGPDICGPGTKKVHVIFNYKGKNVLINKDIRCKDDEFTHLYTLIVRPDNTYEVKIDNSQVESGSLEDDWDFLPPKKIKDPDASKPEDWDERAKIDDPTDSKPEDWDKPEHIPDPDAKKPEDWDEEMDGEWEPPVIQNPEYKGEWKPRQIDNPDYKGTWIHPEIDNPEYSPDANIYAYDSFAVLGLDLWQVKSGTIFDNFLITNDEAYAEEFGNETWGVTKTAEKQMKDKQDEEQRLKEEEEEKKRKEEEEAEEDEEDKDDKEDEDEDEEDKDEEEEEAAAGQAKDEL
modifications: CRT peptide sequence from CRT cDNA
notes: calreticulin, 46 kDa ER protein, exogenously added to vascular cells or vessel lumen

What was measured:
MMP-2/MMP-9 = MMP-2/MMP-9 inhibitor, values given as illustrative
CRT = settings: siRNA to nucleotides 1917–1937 of SEQ ID NO. 1; Troussard et al., 2003
[1] = tested on: intimal hyperplasia after arterial injury; settings: adult rats, exogenously added CRT; Dai et al., 1997
endothelial cells = settings: added to the endothelial culture media; Pike et al., 1999

Molecule | IC50 (MMP-2/MMP-9) | other results
O=C(O)[C@@H](Cc1ccccc1)NS(=O)(=O)c1ccc(-c2ccccc2)cc1 [MMP-2/MMP-9 inhibitor I, (2R)-2-[(4-Biphenylylsulfonyl)amino]-3-phenylpropionic Acid] | 240 to 350 nM | 
O=C(NO)[C@@H](Cc1ccccc1)NS(=O)(=O)c1ccc(-c2ccccc2)cc1 [MMP-2/MMP-9 inhibitor II] | 17 to 30 nM | 
siRNA: small interference RNA to CRT mRNA, sense 5′-GCUGAUCGUGCGGCCGGACAA dTT 3′, anti-sense 5′-UUGUCCGGCCGCACGAUCAGC dTT 3′ (sense GCUGAUCGUGCGGCCGGACAATT; antisense UUGUCCGGCCGCACGAUCAGCTT; chemistry not fully specified) |  | expression of CRT (CRT): significantly diminish the expression of CRT
CC(C)C[C@@H]1NC(=O)[C@H]([C@@H](C)O)NC(=O)[C@H](Cc2ccccc2)NC(=O)CNC(=O)[C@H](Cc2c[nH]c3ccccc23)NC(=O)[C@H](Cc2cnc[nH]2)NC(=O)[C@H]([C@@H](C)O)NC(=O)[C@H]([C@@H](C)O)NC(=O)[C@@H](N)CSSC[C@@H](C(=O)O)NC1=O [MMP-2/MMP-9 inhibitor III] (H-CTTHWGFTLC-OH; disulfide 1-10) | 10000 nM | 
B1 |  | intimal hyperplasia (restenosis) after arterial injury [1]: reducing intimal hyperplasia; endothelial cell proliferation (endothelial cells): selectively inhibits endothelial cell proliferation
